Source: patent US20260193254A1, “2-OXOQUINAZOLINE CRYSTALLINE FORMS” (IDEAYA Biosciences, Inc., priority 2022, published 2026)
In brackets after ≈: the same amount, converted by molar mass. Marks after values point to notes of the source that are not given here.

Columns and labels:
Assay type in all cases: physicochemical
Water activity study = details: for Form obtained in water activity study (XRPD): protected by kapton film
Source text: These solvent mixtures were saturated with the compound of Formula (I) before addition of the polymorph seeds. […] These solvent mixtures were saturated with the compound of Formula (I) before addition of the polymorph seeds. Obtained suspension was filtered. Solid part (wet cake) was investigated by XRPD.

[1] = Competitive equilibration experiments; details: 25° C. and 50° C.
Method: These solvents were saturated with the compound of Formula (I) before addition of the polymorph seeds. Obtained suspension was stirred at 25° C. or 50° C. for 5 days. Solid part (wet cake) was isolated by filtration and investigated by XRPD.

[2] = Grinding simulation experiments - dry grinding
Method: About 20 mg of Form A, Form D, and Form T were ground manually with a mortar and a pestle for 5 min or 1 min. Potential from transition and degree of crystallinity were evaluated by XRPD.

[3] = Bulk stability of crystalline forms; details: for Purity, Bulk (HPLC): Solid state; for Initial purity: before stress, HPLC; for chemical stability and physical stability (bulk stability): stressed under 25° C./92 RH, 40% C/75% RH and 60° C., XRPD and HPLC
Source text: (§1) Solids obtained after bulk stability study were characterized by XRPD and HPLC.

[4] = Equilibrium solubility in FeSSIF and FaSSIF; details: for solubility at 24 h: 37 °C, thermodynamic from solid; for solubility at 24 h / Solubility: target concentration 1 mg/mL, HPLC method 1 or 2 (footnote); for impurity in solubility sample: no unit printed for impurity (column head mg/mL)
Method: (§2) Solid part and liquid part were separated by filtration. Solubility was measured by HPLC. Solid part (wet cake) was investigated by XRPD.

[5] = Equilibrium solubility in SGF (pH 2.0), 0.1 N HCl (pH 1.2) and phosphate buffer (pH 8.0); details: for Solubility / solubility at 24 h: target concentration 1 mg/mL, HPLC method 2; for solubility at 24 h: 37 °C, thermodynamic from solid
Method: as §2

[6] = Intrinsic dissolution rate (IDR) evaluation in FaSSIF; details: FaSSIF at 37° C.; for XRPD after IDR: disc surface after 120 min; for Concentration detected during IDR test (Comments): for Form V and Form A remains same during the whole process, LOQ for Form T and amorphous form
Method: Only one surface of the pellet was exposed (surface area=0.50 cm^2) to 900 mL FaSSIF, the dissolution medium. Temperature of chamber medium was set as 37±0.5° C. Shaft rotation as 100 rpm and sampling time points as 2 min, 5 min, 10 min, 15 min, 20 min, 25 min, 30 min, 35 min, 40 min, 50 min, 60 min, and 120 min. 2 mL sample solution was withdrawn at each time point and centrifuged at 14,000 rpm for 5 min to isolate supernatant. Then concentration of the supernatant was analyzed by HPLC. After 120 min, XRPD of disc surface was measured.

[7] = Bulk stability of crystalline forms; parameters: key: Color A: All No change of color; details: Solid state
Source text: as §1

[8] = Crystallization at room temperature by slow evaporation; details: ambient condition
Source text: Combined with approximate solubility experiment, solubility samples were filtered by 0.45 μm nylon filter. Obtained solutions were slow evaporated at ambient condition. Solid residues were examined for their polymorphic form.

[9] = Precipitation by addition of anti-solvent; details: 1/5 (v:v)
Method: Anti-solvent was added into the obtained solutions slowly. Precipitates were collected by filtration. The solid part (wet cake) was investigated by XRPD. When differences were observed, additional investigations will be performed (e.g. […] etc.).

[10] = 25° C./92% RH, open container, 1 week
[11] = 25° C./92% RH, open container, 2 weeks
[12] = 40° C./75% RH, open container, 1 week
[13] = 40° C./75% RH, open container, 2 weeks
[14] = 60° C., tight container, 1 week
[15] = 60° C., tight container, 2 weeks
[16] = FaSSIF, pH 6.5, 37° C., 24 hours
[17] = FeSSIF, pH 5.0, 37° C., 24 hours
[18] = pH 1.2 (0.1N HCl), 37° C., 24 hours
[19] = pH 8 (phosphate buffer), 37° C., 24 hours

Nc1nc(=O)n(-c2ccccc2Cl)c2nc(C(F)(F)F)ccc12 [Form A, 4-Amino-1-(2-chlorophenyl)-7-(trifluoromethyl)pyrido[2,3-d]pyrimidin-2(1H)-one]
form obtained in water activity experiments (relative stability of Forms A, C, D and E) (Water activity study; acetonitrile/water system, 5° C. and 25° C.): highly crystalline Form A was obtained in all the solvent mixtures | form obtained in competitive equilibration experiments (relative stability of Form A and Form I) [1]: Form A were obtained from all the experiments | XRPD after dry grinding ([2]; Dry grinding for 1 min): substantially amorphous | XRPD after dry grinding ([2]; Dry grinding for 5 min): substantially amorphous | tolerance to dry grinding ([2]; ground manually with mortar and pestle, 5 min or 1 min, XRPD): poor tolerance | Purity, Bulk (HPLC) [3, 10]: 99.0% | Purity, Bulk (HPLC) [3, 11]: 99.2% | Purity, Bulk (HPLC) [3, 12]: 99.0% | Purity, Bulk (HPLC) [3, 13]: 99.1% | Purity, Bulk (HPLC) [3, 14]: 99.1% | Purity, Bulk (HPLC) [3, 15]: 99.2% | Initial purity [3]: 99.0% | chemical stability and physical stability (bulk stability) [3]: good chemical stability and physical stability | solubility at 24 h ([4]; FaSSIF, pH 6.5, fassif, pH 6.5, 37° C.): 90 µg/mL (≈ 264 µM) | XRPD of solid after solubility test [4, 16]: Form A + NaCl | final pH [4, 16]: 6.5 | impurity in solubility sample [4, 16]: no impurity | solubility at 24 h ([4]; FeSSIF, pH 5, fessif, pH 5.0, 37° C.): 240 µg/mL (≈ 704 µM) | final pH [4, 17]: 5.0 | impurity in solubility sample [4, 17]: no impurity | form obtained from the solubility study in 0.1 N HCl solution ([5]; 0.1 N HCl): Form R | XRPD pattern after the solubility test in 0.1 N HCl and SGF ([5]; 37° C., 24 hours): two new patterns were obtained | form obtained from the solubility study in simulated gastric fluid ([5]; SGF, pH 2.0): Form Q | XRPD of solid after solubility test ([5]; SGF, pH 2.0, 37° C., 24 hours): Form Q | final pH ([5]; SGF, pH 2.0, 37° C., 24 hours): 2.2 | Solubility ([5]; SGF, pH 2.0, 37° C., 24 hours): 60 µg/mL (≈ 176 µM) | XRPD of solid after solubility test [5, 18]: Form R | final pH [5, 18]: 1.3 | Solubility [5, 18]: 100 µg/mL (≈ 294 µM) | XRPD of solid after solubility test [5, 19]: Form A | final pH [5, 19]: 8.0 | impurity in solubility sample [5, 19]: no impurity | Solubility [5, 19]: 30 µg/mL (≈ 88.1 µM) | XRPD after IDR [6]: No form change | Concentration detected during IDR test (Comments) [6]: (0.006 mg/mL) | Color [7, 10]: A | Color [7, 11]: A | Color [7, 12]: A | Color [7, 13]: A | Color [7, 14]: A | Color [7, 15]: A

Nc1nc(=O)n(-c2ccccc2Cl)c2nc(C(F)(F)F)ccc12 [solid state Form V, 4-Amino-1-(2-chlorophenyl)-7-(trifluoromethyl)pyrido[2,3-d]pyrimidin-2(1H)-one]
Crystalline Form formed by slow evaporation ([8]; SE1 Methanol (15 mg/mL)): Solid state Form V | Crystalline Form formed by slow evaporation ([8]; SE2 Ethanol (7 mg/mL)): Form F with low crystalline | Crystalline Form formed by slow evaporation ([8]; SE3 2-Propanol (5 mg/mL)): Form J (IPA solvate) | Crystalline Form formed by slow evaporation ([8]; SE6 Acetone (5 mg/mL)): Form G | Crystalline Form formed by slow evaporation ([8]; SE7 Methyl ethyl ketone (5 mg/mL)): Form G | Crystalline Form formed by slow evaporation ([8]; SE9 Tetrahydrofuran (5 mg/mL)): Form K | Crystalline Form formed by slow evaporation ([8]; SE12 Methanol/Ethyl acetate = 1/1 (v/v) (7 mg/mL)): Solid state Form V | Crystalline Form formed by slow evaporation ([8]; SE13 Methanol/Acetonitrile = 1/1 (v/v) (11 mg/mL)): Solid state Form V | Crystalline Form formed by addition of anti-solvent ([9]; AS5 Ethanol (7), anti-solvent Heptane): Form G | Crystalline Form formed by addition of anti-solvent ([9]; AS8 Ethanol (7), anti-solvent Water): Form F | Form obtained in water activity study (XRPD) (Water activity study; AW4 EtOH/water = 0.4/0.6 (v/v) aw = 0.91, 25° C. (4 days)): Form F (protected by kapton film) | Form obtained in water activity study (XRPD) (Water activity study; AW5 EtOH/water = 0.3/0.7 (v/v) aw = 0.93, 25° C. (4 days)): Form F (protected by kapton film) | Form obtained in water activity study (XRPD) (Water activity study; AW6 EtOH/water = 0.2/0.8 (v/v) aw = 0.95, 25° C. (4 days)): Form F (protected by kapton film)^a | Form obtained in water activity study (XRPD) (Water activity study; AW7 EtOH/water = 0.1/0.9 (v/v) aw = 0.97, 25° C. (4 days)): Form E (protected by kapton film) | Form obtained in water activity study (XRPD) (Water activity study; AW8 MeOH aw = 0.0, 25° C. (4 days)): Form C (protected by kapton film) | Form obtained in water activity study (XRPD) (Water activity study; AW9 MeOH/water = 0.970/0.030 (v/v) aw = 0.1, 25° C. (4 days)): Form F (protected by kapton film) | Form obtained in water activity study (XRPD) (Water activity study; AW10 MeOH/water = 0.930/0.070 (v/v) aw = 0.2, 25° C. (4 days)): Form F (protected by kapton film) | Form obtained in water activity study (XRPD) (Water activity study; AW11 MeOH/water = 0.893/0.107 (v/v) aw = 0.3, 25° C. (4 days)): Form F (protected by kapton film) | Form obtained in water activity study (XRPD) (Water activity study; AW12 MeOH/water = 0.775/0.225 (v/v) aw = 0.5, 25° C. (4 days)): Form F (protected by kapton film) | Form obtained in water activity study (XRPD) (Water activity study; AW13 MeOH/water = 0.580/0.420 (v/v) aw = 0.7, 25° C. (4 days)): Form F (protected by kapton film) | Form obtained in water activity study (XRPD) (Water activity study; AW14 MeOH/water = 0.4/0.6 (v/v) aw = 0.81, 25° C. (4 days)): Form E (protected by kapton film) | Form obtained in water activity study (XRPD) (Water activity study; AW15 MeOH/water = 0.3/0.7 (v/v) aw = 0.86, 25° C. (4 days)): Form E (protected by kapton film) | Form obtained in water activity study (XRPD) (Water activity study; AW16 MeOH/water = 0.2/0.8 (v/v) aw = 0.91, 25° C. (4 days)): Form E (protected by kapton film) | Form obtained in water activity study (XRPD) (Water activity study; AW17 MeOH/water = 0.1/0.9 (v/v) aw = 0.96, 25° C. (4 days)): Form E (protected by kapton film) | Form obtained in water activity study (XRPD) (Water activity study; AW18 Water aw = 1.0, 25° C. (4 days)): Form E (protected by kapton film)^b | Purity, Bulk (HPLC) [3, 10]: 98.9% | Purity, Bulk (HPLC) [3, 11]: 98.9% | Purity, Bulk (HPLC) [3, 12]: 98.9% | Purity, Bulk (HPLC) [3, 13]: 98.7% | Purity, Bulk (HPLC) [3, 14]: 98.8% | Purity, Bulk (HPLC) [3, 15]: 98.9% | Initial purity [3]: 98.9% | chemical stability and physical stability (bulk stability) [3]: good chemical stability and physical stability | final pH [4, 16]: 6.5 | Solubility [4, 16]: 100 µg/mL (≈ 294 µM) | impurity in solubility sample [4, 16]: no impurity | final pH [4, 17]: 5.0 | Solubility [4, 17]: 260 µg/mL (≈ 763 µM) | impurity in solubility sample [4, 17]: no impurity | solubility at 24 h ([5]; 0.1 N HCl, pH 1.2, simulated gastric fluid, pH 1.2 (0.1N HCl), 24 hours): 150 µg/mL (≈ 440 µM) | final pH ([5]; SGF, pH 2.0, 37° C., 24 hours): 2.3 | final pH [5, 18]: 1.3 | XRPD of solid after solubility test [5, 19]: Solid state Form V | final pH [5, 19]: 8.0 | impurity in solubility sample [5, 19]: no impurity | solubility at 24 h ([5]; phosphate buffer, pH 8, aqueous buffer, pH 8 (phosphate buffer), 24 hours): 40 µg/mL (≈ 117 µM) | solubility at 24 h ([5]; simulated gastric fluid (SGF), pH 2, simulated gastric fluid, SGF, pH 2.0, 37° C., 24 hours): 70 µg/mL (≈ 205 µM) | XRPD after IDR [6]: No form change | Concentration detected during IDR test (Comments) [6]: (0.006 mg/mL) | Color [7, 10]: A | Color [7, 11]: A | Color [7, 12]: A | Color [7, 13]: A | Color [7, 14]: A | Color [7, 15]: A
